Measurements: patent publication US10221181B2, “6-amino-7-bicyclo-7-deaza-purine derivatives as protein kinase inhibitors” (NERVIANO MEDICAL SCIENCES S.r.l., priority 2014, dated 2019)
Like-named read-outs stand apart in the source and are kept apart here.

Legend:
Assay type in all cases: cell-based
[1] = tested on: LC-2/ad human lung adenocarcinoma, harboring the CCDC6-RET fusion protein; test: In vitro cell proliferation assay, LC-2/ad
Description: (§1) In Vitro Cell Proliferation Assay
(§2) To evaluate the antiproliferative activity of a compound of formula (I) the following human cell lines were used: A2780 ovarian carcinoma; TT medullary thyroid carcinoma, harboring a mutated RET-C634W receptor; LC-2/ad human lung adenocarcinoma, harboring the CCDC6-RET fusion protein. Exponentially growing cells were seeded and incubated at 37° C. in a humidified 5% CO2 atmosphere using appropriate medium supplemented with 10% Fetal Bovine Serum. 24 hours following cell plating, scalar doses of the compounds dissolved in 0.1% DMSO were added to the medium and cells were exposed to drugs for either 72 hours (A2780) or 144 hours (TT and LC-2/ad), according to their different proliferation rate. At the end of treatment, cell proliferation was determined by an intracellular ATP monitoring system (CellTiterGlo—Promega), following manufacturer's instructions, and using an Envision instrument (PerkinElmer) as reader. Data obtained from compound versus vehicle treated cells were compared using Assay Explorer (Symyx Technologies Inc) software. IC50 values were calculated using sigmoidal interpolation curve fitting. In the following Table A the antiproliferative activity of representative compounds of formula (I) on one medullary thyroid carcinoma cell line expressing the aforementioned mutated forms of RET (TT) and on one lung adenocarcinoma cell line harboring the aforementioned fusion form of RET (LC-2/ad) is reported. As control, the antiproliferative activity of the same compounds on an unrelated non RET-dependent cell line (A2780) is reported. All these compounds show remarkable activity on RET-driven cellular models with respect to the unrelated ones.

[2] = tested on: TT medullary thyroid carcinoma, harboring a mutated RET-C634W receptor; test: In vitro cell proliferation assay, TT; details: Homo sapiens
Description: as §1, §2

A2780 ovarian carcinoma = test: In vitro cell proliferation assay, A2780 (non RET-dependent control); details: Homo sapiens
Description: as §1, §2

[3] = antiproliferative activity, 144 hours exposure, CellTiterGlo ATP readout, CCDC6-RET fusion, read-out: LC-2/ad IC50
[4] = antiproliferative activity, 144 hours exposure, CellTiterGlo ATP readout, RET-C634W, read-out: TT IC50
[5] = A2780, antiproliferative activity, 72 hours exposure, CellTiterGlo ATP readout, unrelated non RET-dependent cell line, read-out: A2780 IC50
[6] = 144 h, read-out: LC-2/ad IC50 (μM)
[7] = A2780, 72 h, read-out: A2780 IC50 (μM)

IC50 [1, 3]	IC50 [2, 4]	IC50 (A2780 ovarian carcinoma; [5])	Compound	IC50 [1, 6]	IC50 ([2]; 144 h, read-out: TT IC50 (μM))	IC50 (A2780 ovarian carcinoma; [7])
0.051 µM	0.042 µM	1.84 µM	Nc1ncnc2c1c(-c1ccc3c(C(=O)NC4CC4)cccc3c1)cn2C1CCC1 [cmpd 12, 6-(4-Amino-7-cyclobutyl-7H-pyrrolo[2,3-d]pyrimidin-5-yl)-naphthalene-1-carboxylic acid cyclopropylamide]			
0.049 µM	0.024 µM	0.348 µM	CNC(=O)c1cccc2cc(-c3cn(C(C)C)c4ncnc(N)c34)ccc12 [cmpd 6, 6-(4-Amino-7-isopropyl-7H-pyrrolo[2,3-d]pyrimidin-5-yl)-naphthalene-1-carboxylic acid methylamide]			
0.008 µM	0.002 µM	0.072 µM	CC(C)n1cc(-c2ccc3c(C(=O)Nc4ccc(CN5CCN(C)CC5)c(C(F)(F)F)c4)cccc3c2)c2c(N)ncnc21 [cmpd 10, 6-(4-Amino-7-isopropyl-7H-pyrrolo[2,3-d]pyrimidin-5-yl)-naphthalene-1-carboxylic acid [4-(4-methyl-piperazin-1-ylmethyl)-3-trifluoromethyl-phenyl]-amide]			
			CC(C)n1cc(-c2ccc3c(c2)CCN3C(=O)NC2CC2)c2c(N)ncnc21 [cmpd 16, 5-(4-Amino-7-isopropyl-7H-pyrrolo[2,3-d]pyrimidin-5-yl)-2,3-dihydro-indole-1-carboxylic acid cyclopropylamide]	0.084 µM	0.077 µM	2.19 µM
0.006 µM	0.007 µM	0.463 µM	Nc1ncnc2c1c(-c1ccc3c(C(=O)NC4CC4)cccc3c1)cn2CC1CC1 [cmpd 13, 6-(4-Amino-7-cyclopropylmethyl-7H-pyrrolo[2,3-d]pyrimidin-5-yl)-naphthalene-1-carboxylic acid cyclopropylamide]			
0.003 µM	0.001 µM	0.867 µM	CC(C)n1cc(-c2ccc3c(C(=O)NC4CC4)cccc3c2)c2c(N)ncnc21 [cmpd 1, 6-(4-Amino-7-isopropyl-7H-pyrrolo[2,3-d]pyrimidin-5-yl)-naphthalene-1-carboxylic acid cyclopropylamide]			
0.006 µM	0.003 µM	0.385 µM	Nc1ncnc2c1c(-c1ccc3c(C(=O)NC4CC4)cccc3c1)cn2C1CCCC1 [cmpd 3, 6-(4-Amino-7-cyclopentyl-7H-pyrrolo[2,3-d]pyrimidin-5-yl)-naphthalene-1-carboxylic acid cyclopropylamide]			
			CC(C)NC(=O)c1cccc2cc(-c3cn(C(C)C)c4ncnc(N)c34)ccc12 [cmpd 5, 6-(4-Amino-7-isopropyl-7H-pyrrolo[2,3-d]pyrimidin-5-yl)-naphthalene-1-carboxylic acid isopropylamide]	0.082 µM	0.086 µM	2.94 µM
0.046 µM	0.048 µM	2.81 µM	CC(C)n1cc(-c2ccc3c(C(=O)NCC(F)(F)F)cccc3c2)c2c(N)ncnc21 [cmpd 7, 6-(4-Amino-7-isopropyl-7H-pyrrolo[2,3-d]pyrimidin-5-yl)-naphthalene-1-carboxylic acid (2,2,2-trifluoro-ethyl)-amide]			
0.04 µM	0.03 µM	2.34 µM	Nc1ncnc2c1c(-c1ccc3c(C(=O)NC4CC4)cccc3c1)cn2C1CCC(F)(F)CC1 [cmpd 30, 6-[4-Amino-7-(4,4-difluoro-cyclohexyl)-7H-pyrrolo[2,3-d]pyrimidin-5-yl]-naphthalene-1-carboxylic acid cyclopropylamide]			
0.021 µM	0.017 µM	2.42 µM	CC(C)n1cc(-c2ccc3c(C(N)=O)cccc3c2)c2c(N)ncnc21 [cmpd 4, 6-(4-Amino-7-isopropyl-7H-pyrrolo[2,3-d]pyrimidin-5-yl)-naphthalene-1-carboxylic acid amide]			
0.011 µM	0.009 µM	0.814 µM	Nc1ncnc2c1c(-c1ccc3c(C(=O)NC4CC4)cccc3c1)cn2C1CCOCC1 [cmpd 8, 6-[4-Amino-7-(tetrahydro-pyran-4-yl)-7H-pyrrolo[2,3-d]pyrimidin-5-yl]-naphthalene-1-carboxylic acid cyclopropylamide]			
0.034 µM	0.028 µM	0.961 µM	CC(C)n1cc(-c2ccc3c(C(=O)NC4CCC4)cccc3c2)c2c(N)ncnc21 [cmpd 11, 6-(4-Amino-7-isopropyl-7H-pyrrolo[2,3-d]pyrimidin-5-yl)-naphthalene-1-carboxylic acid cyclobutylamide]			
